The source of these data is US6025343A, “Lipid esters of nucleoside monophosphates and their use as immunosuppressive drugs” (Roche Diagnostics GmbH, priority 1994, dated 2000).

The term IC50 denotes the concentration that gives 50% inhibition.

For data set [1], the system named is murine bone marrow stern cells, colony-forming units/erythrocytes (CFU-E). Description: CFU-E assay, in vitro cytotoxicity / bone marrow toxicity. The data set is classed as cell-based. The settings on record: for IC50: Mus musculus, Erythrocyte. On the procedure:
(§1) The cytostatic/cytotoxic compound Doxorubicin was also included as reference substance. All compounds were tested in 3-6 different experiments concentration dependently with,at least, doublicate or triplicate inclubations per concentration tested.
(§2) For assay conditions, please refer to description of Example 7.

Data set [2] has as its system murine bone marrow stern cells, colony-forming units/granulocytes-macrophages (CFU-GM). Description: CFU-GM assay, in vitro cytotoxicity / bone marrow toxicity. The data set is classed as cell-based. The settings on record: for IC50: Mus musculus, in vitro. On the procedure:
as §1, §2

Data set [3] concerns L 1210 leukemia. Description: Influence on the L 1210 leukemia in vivo: survival time. More on the design: species or system mice.
Protocol: Mice were inoculated with L 1210 leukemia cells on day 0 (n=10 animals/group) and w ere then treated once daily i.p. from day 0 (+1 h)-day +41 (6 weeks) with the weekly cycles indicated on FIGS. 1 and 2, respectively.
Setting [4] is: in vitro, mean ± SEM, Example 7, read-out: IC50 CFU-E.
[5] abbreviates: CFU-GM, mean ± SEM, Example 7, read-out: IC50 CFU-GM.
Setting [6] is: in vitro, mean, Example 10, read-out: Bone marrow toxicity CFU-E, mean IC50.
The mark [7] stands for this setting: CFU-GM, mean, Example 10, read-out: Bone marrow toxicity CFU-GM, mean IC50.
Where [8] appears, read: 5-FU-DMDOPE compared to 5-FU, table.

Like-named read-outs stand apart in the source and are kept apart here.

Consider `Sc1ncnc2nc[nH]c12` [6-Mercaptopurine, reference compound], for which the IC50 in data set [1] (setting [4]) is 0.3 ng/mL; in data set [2] (setting [5]), 2.3 ng/mL.
In the same order, the values of `OC[C@H]1O[C@@H](n2cnc3c(S)ncnc32)[C@H](O)[C@@H]1O` [6-Mercaptopurinriboside, reference compound] are 0.3 ng/mL and 2.3 ng/mL.
For the compound `COc1cccc2c1C(=O)c1c(O)c3c(c(O)c1C2=O)C[C@@](O)(C(=O)CO)C[C@@H]3O[C@H]1C[C@H](N)[C@H](O)[C@H](C)O1` [Doxorubicin, reference compound], the half-inhibitory concentration (IC50) came out at 1.7 ng/mL in data set [1] (setting [4]) and 50 ng/mL in data set [2] (setting [5]).
Regarding `O=c1[nH]c(=O)n([C@@H]2O[C@H](CO)[C@@H](O)[C@H]2O)cc1F` [Example 5-FU, 5-Fluorouridine, reference compound], the IC50 is 0.61 nM in data set [1] (setting [6]) and 4.96 nM in data set [2] (setting [7]). In data set [3] (i.p. once daily, weekly cycles, day 0 (+1 h)-day +41, FIG. 2), the dose-efficacy profile entry is “very narrow dose-efficacy profile”. Further, in data set [3] (i.p., from 2×10/5×0.1 to 2×10/5×0.3 mg kg^-1 day^-1 or even higher doses, FIG. 2), the “survival rates on increasing the dose” value is on record as “reduced survival rates”.
Regarding `CCCCCCCCCCCCSCC(COP(=O)(O)OC[C@H]1O[C@@H](n2cc(F)c(=O)[nH]c2=O)[C@H](O)[C@@H]1O)OCCCCCCCCCC` (some centres unmarked) [Example 5-FU-DMDOPE, (5-Fluorouridine) -5'-phosphoric acid (3-dodecylmercapto 2 decyloxy) propyl ester], in data set [1] (setting [8]), the “Bone marrow toxicity CFU-E, ratio to 5-FU” value came to 610 ×. Besides, in data set [1] (CFU-E), the “less toxic on erythrocyte bone marrow stem cells compared to 5-FU” value is recorded as 610 times. In addition, the IC50 in data set [1] (setting [6]) turned out to be 372 nM; in data set [2] (setting [7]), 1180 nM. The “toxicity on bone marrow cells compared to 5-FU” value in data set [1] (in words, CFU-E and CFU-GM) is “much less toxic on bone marrow cells”. The “Bone marrow toxicity CFU-GM, ratio to 5-FU” value in data set [2] (setting [8]) was 238 ×. The “less toxic on granulocyte/macrophage bone marrow stem cells compared to 5-FU” value in data set [2] (CFU-GM) is on record as 238 times. Moreover, the “therapeutic index/ratio compared to 5-FU” value in data set [3] (concluded from efficacy (FIGS. 1 and 2) and bone marrow toxicity) is reported as “much higher therapeutic index/ratio”. Further, the “survival time compared to control I and II” value in data set [3] (i.p. once daily, weekly cycles, day 0 (+1 h)-day +41, FIG. 1) was “clear dose-dependent increase in survival time”. Moreover, the “efficacy compared to 5-FU” value in data set [3] (leukemia model, equimolar doses, FIGS. 1 and 2) was “clearly more effective”.
In the case of `CCCCCCCCCCCCSCC(COP(=O)(O)OC[C@H]1O[C@@H](n2cnc3c(S)ncnc32)[C@H](O)[C@@H]1O)OCCCCCCCCCC` (stereo partly drawn) [Example 6-MPR-DMDOPE, (6-Mercaptopurine-9-β-D-ribofuranoside)-5'-phosphoric acid (3-dodecylmercapto-2-decyloxy) propyl ester], the values for the half-maximal inhibitory concentration (IC50) in data set [1] (setting [4]) and in data set [2] (setting [5]) were 56 ng/mL and 247 ng/mL, respectively. Besides, the “tolerability by bone marrow stem cells” value in data set [1] (in vitro, CFU-E and CFU-GM, compared to Azathioprine, 6-MP, 6-Mercaptopurinriboside, Doxorubicin) is “much better tolerated by the bone marrow stern cells compared to all other compounds tested”.
